Results on 52 compounds are retold here after PubChem BioAssay AID1996.

The structures appear in SMILES notation. Converted amounts (≈) assume the structure as drawn.

In general, solubility (kinetic) refers to solubility judged after dilution from a stock solution rather than from solid.

For this series the following is noted: buffer; pH 7.4; 200.0 µM.
For the compound `O=C(N/C(=C\c1ccco1)C(=O)N1CCCC1CO)c1ccccc1` (configuration not stated), the solubility (kinetic) was more than 51.1 µg/mL. Next, `O=C(COc1ccccc1)Nc1ccncc1`: more than 34.2 µg/mL; `Nc1nc(NC2CCCCC2)nc(NCCO)c1[N+](=O)[O-]`: 38.1 µg/mL (≈ 129 µM). Next, `CN(CC(=O)NC(=O)NC1CCCCC1)Cc1ccccc1`: more than 45.5 µg/mL. Next, `O=C(NCC1CCCO1)c1cc(C(=O)C2CCCCC2)c[nH]1` (configuration not stated): more than 45.7 µg/mL.

In turn, `O=C(Nc1ccc(F)cc1)C(=O)C1C(=O)Nc2ccccc21` (configuration not stated) had a kinetic solubility of more than 44.7 µg/mL. Next, `O=C(c1ccc(-c2ccc([N+](=O)[O-])cc2)o1)N1CCCCCCC1`: 9.1 µg/mL (≈ 27.7 µM). Next, `Cc1ccc(NS(=O)(=O)c2ccc3[nH]c(=O)c(=O)[nH]c3c2)cc1Cl`: 11.5 µg/mL (≈ 31.4 µM); `COc1ccc(CN(C)CC(=O)N2CCc3ccccc3C2)cc1`: more than 48.7 µg/mL; `Cc1ccc(-c2ccc(S(=O)(=O)Nc3cccnc3)cc2)cc1`: 0.5 µg/mL (≈ 1.54 µM). The compound `Cc1nnc(SCC(=O)NCC2CCCO2)n1Cc1ccccc1` (configuration not stated) came in with a kinetic solubility of more than 52 µg/mL. For `CC1CCCC(C)N1C(=O)CN1c2cccc3cccc(c23)S1(=O)=O` (configuration not stated), the kinetic solubility came to 6.7 µg/mL (≈ 18.7 µM). Next, `CN(C(=O)COc1ccc(Cl)cc1)C1(C)CCS(=O)(=O)C1` (configuration not stated): more than 49.8 µg/mL; `Cc1ccc2oc(=O)n(Cc3ccccc3)c2c1`: 2.9 µg/mL (≈ 12.1 µM). As for `CC(C)C(=O)NCc1cc(-c2ccc(Cl)cc2)no1`, the kinetic solubility was found to be 3 µg/mL (≈ 10.8 µM). Next, `CCn1cc(CNC(=S)Nc2cccc3ccccc23)cn1`: more than 46.6 µg/mL; `Cc1cc(C(=O)Nc2ccc(Cl)cc2)c(C)n1Cc1cccs1`: 2.7 µg/mL (≈ 7.83 µM).

In turn, `COc1ccc(N2CCN(CC(=O)NC(C)c3ccccc3)CC2)cc1` (configuration not stated) showed a solubility (kinetic) of 45.1 µg/mL (≈ 128 µM). Next, `CN1CCCCCC1=Nc1ccc([N+](=O)[O-])cc1.Cl`: more than 42.6 µg/mL; `CCC(CC)N1CCN(C(=O)c2cc(OC)c(OC)c(OC)c2)CC1`: more than 52.6 µg/mL; `Cn1c(SCC(=O)NCC2COc3ccccc3O2)nnc1C(F)(F)F` (configuration not stated): more than 58.3 µg/mL. Next, `O=C(NCC(=O)N1CCCC1)c1ccccc1F`: more than 37.5 µg/mL; `O=C(O)c1csc(-c2ccc(Cl)cc2)n1`: more than 36 µg/mL.

`Cc1occc1C(=O)Nc1cnn(CCCC(=O)O)c1` yielded a solubility (kinetic) of more than 41.6 µg/mL. Next, `CCOC(=O)c1cnc(Cc2ccccc2)[nH]c1=O`: 37.3 µg/mL (≈ 144 µM); `CCCCn1c(O)c(C(CC)=NCCCn2ccnc2)c(=O)[nH]c1=O`: 48.2 µg/mL (≈ 139 µM). Next, `CCOC(=O)c1sc(=NC(=O)c2cccs2)n(C)c1C`: less than 0.3 µg/mL; `Cn1c(=O)c(C(=O)NCCc2ccccc2)c(O)c2ccccc21`: 0.5 µg/mL (≈ 1.55 µM); `O=S(=O)(c1ccc(F)c(F)c1)N1CCC2(CC1)OCCO2`: more than 47.9 µg/mL. Next, `O=C(Nc1cccnc1)c1ccc(Cl)cc1[N+](=O)[O-]`: more than 41.7 µg/mL; `CSc1nsc(SCC(=O)Nc2ccccc2)n1`: 32.4 µg/mL (≈ 109 µM); `CN(C)S(=O)(=O)c1cccc(NC(=O)CCCC2CCCCC2)c1`: 8.2 µg/mL (≈ 23.3 µM). `CCCCN(C(=O)Oc1ccccc1)C1CCS(=O)(=O)C1` (configuration not stated) had a kinetic solubility of more than 46.7 µg/mL.

Compound `CCOc1ccc(CCNC(=O)COC(=O)c2ccc[nH]c2=O)cc1OCC` showed a kinetic solubility of more than 58.3 µg/mL. Next, `Cc1ccc(SCC(=O)NC(=O)NC(C)C)c(C)c1`: 20 µg/mL (≈ 71.3 µM); `CCCCCc1cc(O)c2c3c(c(=O)oc2c1)CN(C)CC3`: less than 0.6 µg/mL. Next, `CC(NCc1ccc(F)cc1)C(=O)NC1CCCCC1.O=C(O)C(=O)O` (configuration not stated): more than 55.3 µg/mL. Next, `Cn1cnc([N+](=O)[O-])c1SCC(O)CCl` (configuration not stated): 36.5 µg/mL (≈ 145 µM). Turning to `COc1ccc(CCNC(=O)C2CCC(=O)N2S(=O)(=O)c2ccc(C)cc2)cc1` (configuration not stated), the kinetic solubility stood at 61.2 µg/mL (≈ 147 µM). Next, `O=S(=O)(Cc1cc(Cl)nc(-c2cccnc2)n1)c1ccccc1`: 40.7 µg/mL (≈ 118 µM); `CCOC(=O)/C=C/C(=O)OCC(=O)Nc1ccc(Cl)cc1Cl`: 8.8 µg/mL (≈ 25.4 µM). Next, `COC(=O)c1c(C)nc(C)c(C(=O)OC)c1-c1ccc(OC)cc1`: more than 49.4 µg/mL. Next, `O=S(=O)(c1cccc2cccc(Cl)c12)N1CCCC1`: 15 µg/mL (≈ 50.7 µM); `Cc1cc(C)nc(SCC(=O)Nc2nccs2)n1`: more than 42.1 µg/mL.

As to `CC(=O)c1ccc(OCc2cc([N+](=O)[O-])cc3c2OCOC3)cc1`, the kinetic solubility was determined as 2.6 µg/mL (≈ 7.9 µM).

The compound `O=C(Nc1ccc(N2CCOCC2)nc1)c1cccs1` yielded a kinetic solubility of more than 43.4 µg/mL. Next, `CC1CCN(C(=O)COC(=O)c2ccc3c(c2)OCCO3)CC1`: more than 47.9 µg/mL. Next, `O=C(CCc1ccccc1)Nc1nccs1`: 17.9 µg/mL (≈ 77.1 µM); `CCc1cccc(C)c1NC(=O)COC(=O)CC1CCCC1`: 15.7 µg/mL (≈ 51.7 µM). Next, `COc1cn(-c2ccccc2)nc1C(=O)NCc1ccccc1`: more than 46.1 µg/mL.

Take `CC(C)(C)N(CC#CCC(O)(c1ccccc1)c1ccccc1)CCO`: the kinetic solubility is 47.1 µg/mL (≈ 134 µM). Next, `COC(=O)c1scc(S(C)(=O)=O)c1-n1cccc1`: 35.2 µg/mL (≈ 123 µM).
